Experimental data as given in patent US10563263B2, “Genetic polymorphisms associated with statin response and cardiovascular diseases, methods of detection and uses thereof” (CELERA CORPORATION, priority 2010, dated 2020).

Tested on: CVD (CHD or stroke)
Assay: WOSCOPS: SNP by pravastatin treatment interaction, logistic regression (synergy index), CVD endpoint
Format: in vivo, human
Conditions: for OR: WOSCOPS; for WOSCOPS OR: endpoint CVD
From the text: CARE was a secondary prevention trial and WOSCOPS was a primary prevention trial.
The CHD endpoint was defined in the analyses herein of CARE as a composite endpoint of fatal CHD, definite non-fatal MI, or revascularization, and was defined in the analyses herein of WOSCOPS as a composite endpoint of death from CHD, nonfatal MI, or revascularization. In both the CARE and WOSCOPS analyses herein, the CVD endpoint was defined as a composite endpoint of CHD or stroke. […] Revascularization, which can include percutaneous transluminal coronary angioplasty (PTCA), stent placement, and coronary artery bypass graft (CABG), are medical interventions that indicate the presence of CHD.
Cohort and case-only study designs were used to identify SNPs associated with response to statin treatment.
For each SNP, a logistic regression model having treatment status as the dependent variable and SNP as the independent predictor variable was performed, with terms for age, sex and race included in the model as covariates. The anti-log of the regression coefficient corresponding to the SNP is an estimate of the synergy index (SI) (Davis et al., “Imputing gene-treatment interactions when the genotype distribution is unknown using case-only and putative placebo analyses-a new method for the Genetics of Hypertension Associated Treatment (GenHAT) study”, Statistics in Medicine 23: (2004), pages 2413-2427). The SI is a ratio of odds ratios: for example in the CARE and WOSCOPS studies, the SI represents the factor by which the odds-ratio of statin treatment, compared with placebo, among major homozygous individuals is multiplied by in order to obtain the odds-ratio of treatment vs. placebo among heterozygous individuals; and multiplied by a second time to obtain the odds-ratio of treatment vs. placebo in minor homozygous individuals. […] In a randomized clinical trial, genotype and treatment are independent by design.

CC[C@H](C)C(=O)O[C@H]1C[C@H](O)C=C2C=C[C@H](C)[C@H](CC[C@@H](O)C[C@@H](O)CC(=O)O)[C@H]21 [Pravastatin, pravastatin]
OR (rs1884902 allele C REC Imputed): 1.796 | OR (rs1913201 allele G ADD Imputed): 0.7632 | OR (rs1913201 allele G DOM Imputed): 0.5772 | OR (rs1944279 allele A ADD Imputed): 1.444 | OR (rs1987179 allele T DOM Imputed): 0.6667 | OR (rs1990023 allele T DOM Imputed): 0.6024 | OR (rs2016194 allele G DOM Imputed): 0.602 | OR (rs2024789 allele C ADD Imputed): 0.7464 | OR (rs2024902 allele A ADD Imputed): 2.395 | OR (rs2024902 allele A DOM Imputed): 2.659 | OR (rs2025107 allele A ADD Imputed): 2.387 | OR (rs2025107 allele A DOM Imputed): 2.904 | OR (rs2025108 allele T ADD Imputed): 2.387 | OR (rs2025108 allele T DOM Imputed): 2.904 | OR (rs2062448 allele T ADD Imputed): 0.4148 | OR (rs2062448 allele T DOM Imputed): 0.4153 | OR (rs2063591 allele C ADD Imputed): 0.7711 | OR (rs2063591 allele C DOM Imputed): 0.5884 | OR (rs2065604 allele C DOM Imputed): 0.4711 | OR (rs2066238 allele T DOM Imputed): 0.6821 | OR (rs2068051 allele G ADD Imputed): 0.6426 | OR (rs2095586 allele A DOM Imputed): 1.351 | OR (rs2108426 allele C DOM Imputed): 0.5994 | OR (rs2110664 allele A DOM Imputed): 1.697 | OR (rs2132242 allele A DOM Imputed): 0.6291 | OR (rs2151644 allele T DOM Imputed): 0.4711 | OR (rs2158958 allele A DOM Imputed): 0.6021 | OR (rs2158961 allele G DOM Imputed): 0.6113 | OR (rs2164099 allele G ADD Imputed): 1.424 | OR (rs2173254 allele G REC Imputed): 0.3756 | OR (rs2188079 allele C ADD Imputed): 1.5 | OR (rs2190304 allele G REC Imputed): 0.628 | OR (rs2190597 allele T DOM Imputed): 0.7825 | OR (rs2190598 allele T DOM Imputed): 0.6021 | OR (rs2190600 allele A DOM Imputed): 0.6022 | OR (rs2218084 allele T REC Imputed): 4.673 | OR (rs2290193, rec, Caseonly, CVD, pravastatin vs placebo): 0.35 | OR (rs2626130, add, Caseonly, CVD, pravastatin vs placebo): 1.37 | OR (rs4289236, add, Caseonly, CVD, pravastatin vs placebo): 1.49 | OR (rs4611134, rec, Caseonly, CVD, pravastatin vs placebo): 1.56 | OR (rs4643388, add, Caseonly, CVD, pravastatin vs placebo): 1.38 | OR (rs6911817, add, Caseonly, CVD, pravastatin vs placebo): 5.32 | OR (rs7327364, dom, Caseonly, CVD, pravastatin vs placebo): 0.64 | OR (rs7497613, rec, Caseonly, CVD, pravastatin vs placebo): 0.43 | OR (rs7767024, add, Caseonly, CVD, pravastatin vs placebo): 1.69 | OR (rs8051893, dom, Caseonly, CVD, pravastatin vs placebo): 0.63 | OR (rs9658127, add, Caseonly, CVD, pravastatin vs placebo): 5.32 | OR (rs10088524, dom, Caseonly, CVD, pravastatin vs placebo): 1.80 | OR (rs11925875, dom, Caseonly, CVD, pravastatin vs placebo): 0.57 | OR (rs17076972 allele C REC Imputed): 1.85 | OR (rs17189710 allele T ADD Imputed): 1.429 | OR (rs17196143 allele A ADD Imputed): 1.543 | OR (rs17353809 allele G ADD Imputed): 1.616 | OR (rs17446418 allele G DOM Imputed): 0.6878 | OR (rs17530747 allele T DOM Imputed): 0.6878 | OR (rs17546598, dom, Caseonly, CVD, pravastatin vs placebo): 2.07 | OR (rs17604285 allele C ADD Imputed): 0.4148 | OR (rs17604285 allele C DOM Imputed): 0.4153 | OR (rs17662322 allele T DOM Imputed): 0.6835 | OR (rs17769826 allele T ADD Imputed): 1.616 | OR (rs17821641 allele T ADD Imputed): 1.571 | WOSCOPS OR (rs151806, source cohort, model dom): 0.67 | WOSCOPS OR (rs205279, source Caseonly, model add): 1.60 | WOSCOPS OR (rs312929, source cohort, model add): 0.79 | WOSCOPS OR (rs316720, source cohort, model add): 0.78 | WOSCOPS OR (rs354342, source Caseonly, model add): 0.62 | WOSCOPS OR (rs610118, source Caseonly, model dom): 0.62 | WOSCOPS OR (rs624460, source cohort, model add): 0.74 | WOSCOPS OR (rs669684, source cohort, model add): 0.77 | WOSCOPS OR (rs945020, source cohort, model dom): 0.72 | WOSCOPS OR (rs1035618, source Caseonly, model add): 1.48 | WOSCOPS OR (rs1051344, source cohort, model dom): 0.64 | WOSCOPS OR (rs1167245, source Caseonly, model dom): 0.51 | WOSCOPS OR (rs1349282, source cohort, model dom): 0.55 | WOSCOPS OR (rs1861326, source Caseonly, model dom): 0.67 | WOSCOPS OR (rs2023650, source Caseonly, model add): 0.62 | WOSCOPS OR (rs2145540, source Caseonly, model dom): 0.70 | WOSCOPS OR (rs2157673, source Caseonly, model add): 1.56 | WOSCOPS OR (rs2231496, source Caseonly, model add): 0.67 | WOSCOPS OR (rs2268650, source Caseonly, model dom): 0.71 | WOSCOPS OR (rs2376764, source Caseonly, model rec): 0.48 | WOSCOPS OR (rs2492367, source cohort, model add): 0.68 | WOSCOPS OR (rs2495295, source Caseonly, model dom): 0.66 | WOSCOPS OR (rs2534752, source cohort, model dom): 1.74 | WOSCOPS OR (rs2695026, source Caseonly, model add): 0.61 | WOSCOPS OR (rs2793086, source Caseonly, model add): 0.72 | WOSCOPS OR (rs2843171, source Caseonly, model dom): 0.61 | WOSCOPS OR (rs3213616, source cohort, model add): 0.62 | WOSCOPS OR (rs3798544, source Caseonly, model dom): 1.78 | WOSCOPS OR (rs4243071, source Caseonly, model rec): 0.41 | WOSCOPS OR (rs4626316, source cohort, model dom): 0.38 | WOSCOPS OR (rs4866354, source Caseonly, model dom): 0.31 | WOSCOPS OR (rs4869033, source Caseonly, model rec): 0.47 | WOSCOPS OR (rs4986146, source cohort, model add): 0.66 | WOSCOPS OR (rs4993917, source Caseonly, model dom): 0.67 | WOSCOPS OR (rs5017584, source Caseonly, model rec): 1.98 | WOSCOPS OR (rs5021480, source Caseonly, model rec): 1.87 | WOSCOPS OR (rs7179134, source cohort, model rec): 3.50 | WOSCOPS OR (rs7612715, source cohort, model add): 0.55 | WOSCOPS OR (rs7671659, source cohort, model dom): 1.43 | WOSCOPS OR (rs9292827, source Caseonly, model dom): 0.27 | WOSCOPS OR (rs9375683, source cohort, model dom): 1.31 | WOSCOPS OR (rs9487284, source cohort, model dom): 0.70 | WOSCOPS OR (rs9896077, source cohort, model dom): 0.71 | WOSCOPS OR (rs10088505, source Caseonly, model dom): 1.78 | WOSCOPS OR (rs10444402, source Caseonly, model add): 0.65 | WOSCOPS OR (rs10494924, source Caseonly, model dom): 0.68 | WOSCOPS OR (rs10517923, source Caseonly, model rec): 1.60 | WOSCOPS OR (rs10849442, source Caseonly, model rec): 0.59 | WOSCOPS OR (rs10889215, source cohort, model add): 1.95 | WOSCOPS OR (rs11076320, source Caseonly, model dom): 0.68 | WOSCOPS OR (rs11610993, source Caseonly, model dom): 0.49 | WOSCOPS OR (rs12155847, source Caseonly, model dom): 1.61 | WOSCOPS OR (rs17347854, source Caseonly, model dom): 0.62 | WOSCOPS OR (rs17740227, source Caseonly, model dom): 1.53 | WOSCOPS OR (rs33910446, source Caseonly, model rec): 2.23 | WOSCOPS OR (rs72746987, source Caseonly, model dom): 0.34
